Experimental data as given in patent US8927572B2, “Crystal form I of salt of a dipeptidyl peptidase-IV inhibitor and preparation method and use thereof” (Xuanzhu Pharma Co., Ltd., priority 2011, dated 2015).
Counter-ions that a name gives are not always drawn. Each block holds one compound with its values, some of them ahead of it.

Legend:
DPP-IV = DPP-IV (Homo sapiens, UniProt P27487); conditions: background; described in CN201010291056.9; cited from earlier work
[1] = Investigation on the water solubility; format: physicochemical
Text: Investigation on the Water Solubility of Crystal Form I of Dihydrochloride Salt of Compound A

[2] = In vivo pharmacokinetics in SD rats; parameters: species or system SD (Sprague Dwaley) rats
Procedure: (§1) Test sample: the crystal form I of dihydrochloride salt of Compound A prepared from Example 1.
Experimental Animals: SD (Sprague Dwaley) rats, quantity 12.
The SD rats were divided into two groups, namely Intravenous Injection group and Intragastric Administration group, and there were 6 rats in each group in which one half were female and the other were male. The dose administrated was always 10 mg/kg (in terms of Compound A). The volume administered by the intravenous injection route was 5 mL/kg, and the volume administered by the intragastric administration route was 10 mL/kg. The time points for sequential blood sampling were 0 minutes before administration (0 min), and 5 min, 15 min, 30 min, 1 h, 2 h, 4 h, 6 h, 8 h, 12 h and 24 h after administration. About 150 μL of blood was collected into a sodium heparin anticoagulation tube from the caudal vein or Inner canthus vein after administration. The whole blood was placed in a high-speed refrigerated centrifuge (8000 rpm, 0-4° C.) and centrifuged for 6 min. The supernatant of the blood plasma was separated and stored in a refrigerator for measurement. The centrifugation of all blood samples was completed within 30 min after blood collection. The concentration of Compound A in the blood plasma of SD rats was determined by LC-MS/MS method.
Analysis and processing of Data: The plasma concentration—time curve was plotted, and the pharmacokinetic parameters were calculated by using the non-compartment model in Phrsight Phoenix 6.1.

blood glucose = test: Oral Glucose Tolerance Test (OGTT) in mice; format: in vivo, Mice C57BL/6; conditions: for inhibition ratio for the blood glucose AUC: glucose 3 g/kg
Procedure: as §1
Experimental animals: Mice C57BL/6, quantity 40.
On the day before the test, the food for mice was removed at 5 p.m., and the mice were fasted overnight. On the second day, the fasting blood glucose of each mouse was checked at 9 a.m. and recorded as −30 min blood glucose. The body weight was weighed and recorded. After balancing the blood glucose level and body weight, the mice were randomly divided into four groups, namely Background Control group, Vehicle Control group, Dosing group 1 and Dosing group 2. To the later three groups, a vehicle (0.9% sodium chloride injection solution), 1 mg/kg test sample and 3 mg/kg test sample was administered respectively, and the volume administered was 10 mL/kg. The blood glucose of each mouse was measured and recorded as 0 min blood glucose 30 minutes after the intragastric administration. Afterwards glucose was further administered via intragastric administration at a dose of 3 g/kg to the Vehicle Control group, Dosing group 1 and Dosing group 2, and 0.9% sodium chloride injection solution was administered via intragastric administration to the Background Control group at an intragastric administration volume of 10 mL/kg. Then, the blood glucose levels were measured at 20, 40, 60 and 120 minutes after the administration of glucose or sodium chloride solution.
Analysis and Processing of the Data:
The area under the time-blood glucose curve of the OGTT (Oral Glucose Tolerance Test) (AUC) was calculated. A net variable AUC (ΔAUC) was obtained by subtracting the AUC of Background Control group from that of Vehicle Control group, Dosing groups 1 and 2. The inhibition ratio (%)=100×(ΔAUCVehicle Control group-ΔAUC)/ΔAUCVehicle Control group, wherein ΔAUC is the net variable AUC of each Dosing group, and ΔAUCVehicle Control group is the net variable AUC of Vehicle Control group. The data of Dosing groups were compared with that of Vehicle Control group by using t-test value analysis, and the difference was considered significant at p<0.05.

[3] = Influence factor stability test (high temperature, high humidity, light irradiation); format: physicochemical
Procedure: The crystal form I of dihydrochloride salt of Compound A prepared from Example 1.
The Test Conditions for Investigating the Influencing Factors:
Each of the test samples was placed at a high temperature of 60° C. (packed with an plastic bag for packing drugs as the inner layer and an aluminium foil as the outer layer), a high humidity of RH75%±5% (uniformly spread on a dry and clean watch glass), and a light irradiation of 4500 Lx±500 Lx (uniformly spread on a dry and clean watch glass). Sampling was performed on Day 5 and Day 10 respectively, and Relevant Substance and the content of Compound A were measured and compared with those of the sample on Day 0.
(§2) The content was measured by using an External Standard method in accordance with the High Performance Liquid Chromatography in Chinese Pharmacopoeia, Appendix V D, Edition 2010.
(§3) Measurement of Relevant Substance
(§4) The Relevant Substance was measured by using an Area Normalization method in accordance with the High Performance Liquid Chromatography in Chinese Pharmacopoeia, Appendix V D, Edition 2010.

Long-term stability test = format: physicochemical; conditions: for Content of Compound A (%) / Content of Relevant Substance (%) / Properties: 25° C.±2° C., RH 60%±10%
Procedure: The Test Conditions for Investigating the Long-Term Stability:
Each of the test samples was placed at a temperature of 25° C.±2° C. and a humidity of RH 60%±10%. Sampling was performed at the end of Months 3, 6, 9, 12 and 18 respectively, and Relevant Substance and the content of Compound A were measured and compared with those of the sample on Day 0. During the investigation, the sample was packed with a plastic bag for packing drugs as the inner layer and an aluminium foil as the outer layer.
as §2, §3, §4

[4] = intravenous injection, 10 mg/kg (in terms of Compound A)

Chain of DPP-IV (P27487 whole entry, species assumed): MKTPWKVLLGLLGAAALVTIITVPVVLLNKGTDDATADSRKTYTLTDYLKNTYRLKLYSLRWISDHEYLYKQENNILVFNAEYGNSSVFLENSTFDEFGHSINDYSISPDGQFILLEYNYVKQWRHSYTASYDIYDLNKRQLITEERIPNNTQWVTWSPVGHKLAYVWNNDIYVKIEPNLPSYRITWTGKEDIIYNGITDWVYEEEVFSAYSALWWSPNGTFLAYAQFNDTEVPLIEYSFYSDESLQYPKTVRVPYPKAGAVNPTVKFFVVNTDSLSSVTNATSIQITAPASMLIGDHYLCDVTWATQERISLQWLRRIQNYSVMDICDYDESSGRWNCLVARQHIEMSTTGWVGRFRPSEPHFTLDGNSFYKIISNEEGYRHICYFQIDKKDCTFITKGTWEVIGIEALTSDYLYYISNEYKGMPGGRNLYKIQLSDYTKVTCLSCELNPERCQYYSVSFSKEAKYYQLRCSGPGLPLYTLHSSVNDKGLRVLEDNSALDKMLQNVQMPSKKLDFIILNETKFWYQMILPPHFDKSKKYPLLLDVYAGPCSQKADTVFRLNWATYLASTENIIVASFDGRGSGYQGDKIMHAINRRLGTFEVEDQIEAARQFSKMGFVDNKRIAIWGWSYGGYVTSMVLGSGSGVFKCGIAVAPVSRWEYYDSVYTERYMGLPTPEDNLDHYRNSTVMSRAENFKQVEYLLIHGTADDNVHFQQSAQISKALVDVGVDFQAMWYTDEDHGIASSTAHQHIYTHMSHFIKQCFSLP

Water solubility [1]: <0.1 mg/mL
Water solubility (in words) [1]: hardly dissolved or insoluble in water
Structure (SMILES): Cc1cc(N2CCC[C@@H](N)C2)c2c(n1)n(C)c(=O)n2Cc1ccccc1C#N [Compound A, (R)-2-[[7-(3-aminopiperidin-1-yl)-3,5-dimethyl-2-oxo-2,3-dihydro-1H-imidazo[4,5-b]pyridin-1-yl]methyl]benzonitrile]
inhibitory effect for DPP-IV (in words) (DPP-IV): strong inhibitory effect
selectivity for DPP-IV (in words) (DPP-IV): very high selectivity

bioavailability ([2]; both sexes, Sprague-Dawley, rat, plasma, oral, intragastric vs intravenous, 10 mg/kg (in terms of Compound A), read-out: bioavailability (F %)): 96.6%
Structure (SMILES): Cc1cc(N2CCC[C@@H](N)C2)c2c(n1)n(C)c(=O)n2Cc1ccccc1C#N

Water solubility [1]: >1000 mg/mL
Water solubility (in words) [1]: dissolved very easily in water
Content of Compound A (%) ([3]; 60° C., Day 5): 98.80%
Content of Relevant Substance (%) ([3]; 60° C., Day 5): 0.156%
Properties ([3]; 60° C., Day 5): white crystalline
Content of Compound A (%) ([3]; 60° C., Day 10): 99.42%
Content of Relevant Substance (%) ([3]; 60° C., Day 10): 0.142%
Properties ([3]; 60° C., Day 10): white crystalline
Content of Compound A (%) ([3]; 4500Lx ± 500Lx, Day 5): 98.09%
Content of Relevant Substance (%) ([3]; 4500Lx ± 500Lx, Day 5): 0.194%
Properties ([3]; 4500Lx ± 500Lx, Day 5): white crystalline
Content of Compound A (%) ([3]; 4500Lx ± 500Lx, Day 10): 99.17%
Content of Relevant Substance (%) ([3]; 4500Lx ± 500Lx, Day 10): 0.159%
Properties ([3]; 4500Lx ± 500Lx, Day 10): white crystalline
Content of Compound A (%) ([3]; Day 0): 99.16%
Content of Relevant Substance (%) ([3]; Day 0): 0.151%
Properties ([3]; Day 0): white crystalline
Content of Compound A (%) ([3]; RH 75% ± 5%, Day 5): 99.30%
Content of Relevant Substance (%) ([3]; RH 75% ± 5%, Day 5): 0.200%
Properties ([3]; RH 75% ± 5%, Day 5): white crystalline
Content of Compound A (%) ([3]; RH 75% ± 5%, Day 10): 99.55%
Content of Relevant Substance (%) ([3]; RH 75% ± 5%, Day 10): 0.171%
Properties ([3]; RH 75% ± 5%, Day 10): white crystalline
Relevant Substance and the content of Compound A (change, in words) ([3]; high temperature, high humidity and light irradiation): substantially unchanged
in vivo bioavailability (in words) [2]: high
apparent volume of distribution (Vd) [2, 4]: 6.17 L/kg
plasma clearance (CL) [2, 4]: 2.40 L/h/kg
Content of Compound A (%) (Long-term stability test; Month 0): 99.53%
Content of Relevant Substance (%) (Long-term stability test; Month 0): 0.211%
Properties (Long-term stability test; Month 0): white crystalline
Content of Compound A (%) (Long-term stability test; Month 3): 99.32%
Content of Relevant Substance (%) (Long-term stability test; Month 3): 0.251%
Properties (Long-term stability test; Month 3): white crystalline
Content of Compound A (%) (Long-term stability test; Month 6): 99.19%
Content of Relevant Substance (%) (Long-term stability test; Month 6): 0.246%
Properties (Long-term stability test; Month 6): white crystalline
Content of Compound A (%) (Long-term stability test; Month 9): 98.99%
Content of Relevant Substance (%) (Long-term stability test; Month 9): 0.248%
Properties (Long-term stability test; Month 9): white crystalline
Content of Compound A (%) (Long-term stability test; Month 12): 99.17%
Content of Relevant Substance (%) (Long-term stability test; Month 12): 0.221%
Properties (Long-term stability test; Month 12): white crystalline
Content of Compound A (%) (Long-term stability test; Month 18): 99.37%
Content of Relevant Substance (%) (Long-term stability test; Month 18): 0.221%
Properties (Long-term stability test; Month 18): white crystalline
Relevant Substance and the content of Compound A (change, in words) (Long-term stability test; long-term stability investigating test): substantially unchanged
Structure (SMILES): Cc1cc(N2CCC[C@@H](N)C2)c2c(n1)n(C)c(=O)n2Cc1ccccc1C#N [crystal form I of dihydrochloride salt of Compound A]
effect for reducing blood glucose (in words) (blood glucose; mice C57BL/6): significant effect for reducing blood glucose
inhibition ratio for the blood glucose AUC (blood glucose; mice C57BL/6, 1 mg/kg intragastric): 57%
inhibition ratio for the blood glucose AUC (blood glucose; mice C57BL/6, 3 mg/kg intragastric): 65%
